Values joined by “and” are separate entries in the source; they are usually repeats but may differ in a detail not shown here. Identical values can stand only once.
How the values were obtained:
Genome polyprotein [1] = biological target: T1, Genome polyprotein (dengue virus type 2, UniProt P29990); format: functional, Thailand/16681/1984
Genome polyprotein [2] = biological target: T1, Genome polyprotein; format: functional, Thailand/16681/1984; remark: listed apart in the source

T1 sequence (P29990 1346-1475 limits assumed): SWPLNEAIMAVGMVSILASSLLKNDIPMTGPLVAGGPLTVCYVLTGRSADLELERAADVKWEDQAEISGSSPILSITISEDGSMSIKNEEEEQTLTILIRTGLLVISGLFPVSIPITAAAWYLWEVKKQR
T1 sequence (P29990 1476-2093 limits assumed): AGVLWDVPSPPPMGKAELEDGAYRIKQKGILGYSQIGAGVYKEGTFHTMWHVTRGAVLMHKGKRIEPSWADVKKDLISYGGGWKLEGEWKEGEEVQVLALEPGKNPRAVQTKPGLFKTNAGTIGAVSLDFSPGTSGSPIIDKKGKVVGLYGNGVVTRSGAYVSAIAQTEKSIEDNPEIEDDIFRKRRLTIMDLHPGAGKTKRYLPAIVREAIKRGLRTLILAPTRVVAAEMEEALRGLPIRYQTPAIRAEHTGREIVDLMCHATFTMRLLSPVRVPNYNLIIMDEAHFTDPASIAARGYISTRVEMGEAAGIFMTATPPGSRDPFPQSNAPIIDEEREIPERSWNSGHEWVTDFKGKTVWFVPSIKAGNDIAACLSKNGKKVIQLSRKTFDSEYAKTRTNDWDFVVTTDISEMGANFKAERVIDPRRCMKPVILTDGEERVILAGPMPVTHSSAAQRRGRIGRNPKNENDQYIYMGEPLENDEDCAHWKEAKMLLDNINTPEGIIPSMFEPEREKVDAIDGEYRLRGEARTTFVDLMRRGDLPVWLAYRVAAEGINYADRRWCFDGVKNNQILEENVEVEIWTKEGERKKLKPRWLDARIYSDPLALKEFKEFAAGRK

Row | Structure (SMILES) | IC50 (Genome polyprotein [1]) | IC50 (Genome polyprotein [2])
1 | Cn1cc(C(F)(F)F)nc1C(=O)Nc1cc(-c2cccnc2)ccn1 | > 99.5 µM | > 100 µM
2 | O=C(Nc1ccc2c(c1)CNC2)c1cc(Cl)cc2[nH]c(-c3nc4c(s3)CCC4)nc12 | 16.4 µM | > 100 µM
3 | O=C(Nc1ccc2c(c1)CNC2)c1ccc2c(c1)CCC2 | > 99.5 µM | > 100 µM
4 | O=C(Nc1ccc2c(c1)C(=O)OC2)c1cc(CC2CCNCC2)ccc1F | > 99.5 µM | > 100 µM
5 | Cn1nc(C(=O)Nc2cc(-c3cccnc3)ccn2)cc1C1CC1 | > 99.5 µM | > 100 µM
6 | O=C(Nc1ccc2c(c1)CNC2)c1cc(Cl)cc2[nH]c(-c3ccc(F)cc3O)nc12 | 23.8 µM | 60.1 µM
7 | O=C1OCc2ccc(NC(=O)c3cccc4c3CNC4)cc21 | > 99.5 µM | > 100 µM
8 | CCOC(=O)c1csc([C@H]2CCCN2C(=O)Nc2ccc3c(c2)CNC3)n1 | > 99.5 µM | > 100 µM
9 | Cc1c(C(=O)Nc2cc(-c3cccnc3)ccn2)cc(C(C)C)n1C | > 99.5 µM | > 100 µM
10 | c1cc([C@@H]2C[C@H]2c2ccc3c(c2)CNC3)c2cn[nH]c2c1 | > 99.5 µM | > 100 µM
11 | Cc1c(C(=O)Nc2cc(C3CCOCC3)ccc2F)cc(C2CC2)n1C | > 99.5 µM | > 100 µM
12 | C[C@](N)(C(=O)Nc1ccc2c(c1)C(=O)OC2)c1cccs1 | > 99.5 µM | > 100 µM
13 | Cc1c(C(=O)NCc2ccnc(OC3CCOCC3)c2)cc(C2CC2)n1C | > 99.5 µM | > 100 µM
14 | Cc1c(C(=O)NCc2cccc(C3COC3)c2)cc(C2CC2)n1C | > 99.5 µM | > 100 µM
15 | O=C(Nc1ccc2c(c1)C(=O)OC2)c1cccc(CC2CNC2)c1 | > 99.5 µM | > 100 µM
16 | O=C(Nc1cc(-c2cccnc2)ccn1)c1csc(C2CC2)n1 | > 99.5 µM | > 100 µM
17 | O=C1OCc2ccc(NC(=O)[C@H]3CCNC3)cc21 | > 99.5 µM | > 100 µM
18 | C=CC[C@H]1NCc2cc(N[C@H](C(=O)NC(C)C)c3cc(Cl)cc4[nH]ncc34)ccc21 | 63.9 µM | 56.9 µM

Row | Structure (SMILES) | IC50 (Genome polyprotein [1]) | IC50 (Genome polyprotein [2])
19 | CC1=C(c2cc(NC(=O)c3cc(Cl)cc4[nH]ncc34)cc3c2CNC3)CCC1=O | > 99.5 µM | > 100 µM
20 | O=C1OCc2ccc(NC(=O)[C@H]3CNCc4[nH]ncc43)cc21 | > 99.5 µM | > 100 µM
21 | O=C(Nc1cc(-c2cccnc2)ccn1)c1cc(C2CC2)no1 | > 99.5 µM | > 100 µM
22 | Cn1nc(C2CC2)cc1C(=O)Nc1cc(-c2cccnc2)ccn1 | > 99.5 µM | > 100 µM
23 | O=C(Nc1cc(-c2cccnc2)ccn1)c1cnc(C2CC2)s1 | > 99.5 µM | > 100 µM
24 | CC1(C)C[C@H](C(=O)Nc2ccc3c(c2)C(=O)OC3)CCN1 | > 99.5 µM | > 100 µM
25 | Cc1nnc(SC[C@H]2CCCN2C(=O)Nc2ccc3c(c2)CNC3)s1 | > 99.5 µM | > 100 µM
26 | O=C(Nc1ccc2c(c1)CNC2)c1cccc2nc(O)ccc12 | > 99.5 µM | 47.3 µM and 4.98 µM
27 | O=C1Cc2cc(C(=O)Nc3ccc4c(c3)CNC4)c(Cl)cc2N1 | > 99.5 µM | 35.9 µM and 22.7 µM
28 | Fc1cc(CNc2ccc3c(c2)CNC3)c2cn[nH]c2c1 | > 99.5 µM | > 100 µM
29 | NCCC1(C(=O)Nc2ccc3c(c2)C(=O)OC3)CCCC1 | > 99.5 µM | > 100 µM
30 | Cn1nc(C(=O)Nc2cc([C@H]3CCOC3)ccn2)cc1C1CC1 | > 99.5 µM | > 100 µM
31 | Cc1c(C(=O)Nc2cccc(C3CCOCC3)c2)cc(C2CC2)n1C | > 99.5 µM | > 100 µM
32 | O=C(Nc1cc(-c2cccnc2)ccn1)c1coc(C2CC2)n1 | > 99.5 µM | > 100 µM
33 | N#Cc1cccc(-c2nc3c(C(=O)Nc4ccc5c(c4)CNC5)cc(Cl)cc3[nH]2)c1 | 1.76 µM and 2.66 µM | 17.3 µM and 12.2 µM
34 | CO[C@]1(C(=O)Nc2ccc3c(c2)C(=O)OC3)CCCNC1 | > 99.5 µM | > 100 µM
35 | Cn1nc(C(F)(F)F)cc1C(=O)Nc1cc(-c2cccnc2)ccn1 | > 99.5 µM | > 100 µM

From ChEMBL document CHEMBL5604063, “ASAP - DENV-2 NS2B-NS3 protease fluorescence dose response” (2024)
